What was measured:
[1] = system: pulse rate of narcotized cats; assay: Increase in pulse rate of narcotized cats by isoproterenol; format: in vivo; conditions: 1 μg/kg, intravenously; narcotized cats (2-4 kg); average
Method: (§1) Isoproterenol (1 μg/kg, administered intravenously) causes increases, averaging 40%, in the pulse rate of narcotized cats (weighing 2-4 kg). β-Sympatholytic agents inhibit such tachycardia. Isoproterenol was administered before, and 10 and 40 minutes after, the intravenous administration of the test substances. Linear relationships exist between the logarithms of the administered doses (mg/kg) of the test substances and the inhibition of isoproterenol-induced tachycardia (%). From these relationships, the doses (ED 50%) which inhibit the isoproterenol-induced tachycardia by 50% are determined.

[2] = target: T1, cardiac β1 -receptors (Felis catus, UniProt Q9TST6); assay: β-Sympatholytic action: inhibition of isoproterenol-induced tachycardia in narcotized cats; format: in vivo; conditions: for β1 -Sympatholytic action R.A. (relative activity): Propranolol = 1.00, cats, intravenous; for ED50: cat, cats under hexobarbital narcosis, intravenous administration, read-out: β1 -Sympatholytic action ED 50%: dose which inhibits the isoproterenol-induced tachycardia by 50%; for blocking dose for cardiac β1 -receptors: times lower than that of propranolol: versus comparative substance propranolol
T1 construct: pulse rate of narcotized cats (weighing 2-4 kg); from tissue; host or cells: heart of the living cat (in vivo, hexobarbital narcosis)
T1 sequence (Q9TST6 whole entry): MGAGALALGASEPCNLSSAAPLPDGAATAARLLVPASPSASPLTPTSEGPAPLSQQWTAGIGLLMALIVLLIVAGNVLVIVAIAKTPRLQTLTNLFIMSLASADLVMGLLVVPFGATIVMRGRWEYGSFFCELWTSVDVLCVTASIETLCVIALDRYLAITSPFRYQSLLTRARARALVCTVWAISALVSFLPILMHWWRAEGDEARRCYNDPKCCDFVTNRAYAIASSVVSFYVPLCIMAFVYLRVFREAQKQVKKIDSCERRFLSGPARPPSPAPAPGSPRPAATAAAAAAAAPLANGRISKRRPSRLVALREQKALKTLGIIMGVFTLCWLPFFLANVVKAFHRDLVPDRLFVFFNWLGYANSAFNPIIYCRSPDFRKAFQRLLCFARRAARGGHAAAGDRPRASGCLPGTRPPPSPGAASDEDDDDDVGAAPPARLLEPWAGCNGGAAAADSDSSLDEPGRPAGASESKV
Method: The β-sympatholytic action was tested on cats. […] The following methods were employed in the tests:
as §1, with “(%).” for “(%). From these relationships, the doses (ED 50%) which inhibit the isoproterenol-induced tachycardia by 50% are determined.”
^(1) Inhibition of isoproterenolinduced tachycardia. Cats under
hexobarbital narcosis. Intravenous administration.
^(2) Dose (mg/kg), which inhibits the isoproterenolinduced tachycardi
^(3) Relative activity.

[3] = in vivo; conditions: mouse; for selectivity ratio: footnote (5) formula is a drawing, read-out: Therapeutic range; for LD50: ip, mice, intraperitoneal administration, read-out: Acute toxicity LD 50
[4] = system: NMRI mice; assay: in vivo; conditions: mouse

For `CC(C)NCC(O)c1ccc(O)c(O)c1` (stereo not shown) [Isoproterenol], which “increase in the pulse rate” value [1] is on record?
The value was roughly 40%.

Which “β1 -Sympatholytic action R.A. (relative activity)” value [2] does the source give for `COc1ccc(CCNCC(O)COc2ccccc2C=Cc2nnc(C)s2)cc1OC` (stereo not shown) [Example 2] here?
Its value is 5.64.

And the ED50 [2]?
The ED50 was 0.025 mg/kg.

What about the “blocking dose for cardiac β1 -receptors: times lower than that of propranolol” value [2] of the same compound?
Its value is 5.6 times.

And the selectivity ratio [3]?
The selectivity ratio was 3250.

What about the LD50 [3] of the same compound?
The LD50 was 81.3 mg/kg.

What about the “therapeutic range: times greater than for propranolol” value [4] of the same compound?
Its value is 4.2 times.

Which results are given for `Cc1nnc(C=Cc2ccccc2OCC(O)CNC(C)CCc2ccc(O)cc2)s1` (stereo not shown) [Example 4]?
β1 -Sympatholytic action R.A. (relative activity) [2]: 6.71; ED50 [2]: 0.021 mg/kg; blocking dose for cardiac β1 -receptors: times lower than that of propranolol [2]: 6.7 times; selectivity ratio [3]: 1990; LD50 [3]: 41.7 mg/kg; therapeutic range: times greater than for propranolol [4]: 2.6 times
